# Measurements published in patent publication US9097693B2, “Simple analysis method of drugs” (priority 2005, dated 2015).
# Read-outs that look alike come from different tables or passages of the source.
# Conditions: for nicotine content in hair: smoker, three 6 cm hairs (about 0.9 mg)
# Method: Three 60 mm hairs (about 0.9 mg) were put in a stainless injection needle (inner diameter of 0.5 mm, outer diameter of 0.7 mm, the tip conical part length of 2 mm, the container part length of 80 mm, and one aperture of 0.4 mm in diameter in the lateral side of the end of the container). A syringe was fixed to the needle and methanol, dichloromethane and methanol each one ml were run in this order through the needle to wash the hairs.
# Then, the needle was inserted into an injector (at 300° C.) of a gas chromatograph (Agilent, HP-6890) and held for 15 seconds. Then, dichloromethane (25 μL) was injected for desorption and a carrier gas was run. The chromatography was conducted under the following conditions. • Column diameter: 0.25 mm • Column length: 25 m • Column stationary phase: dimethylpolysiloxane (HR-1) • Column temperature: 50° C. to 300° C. (temperature rising: 5° C./min) • Carrier gas: helium • Carrier gas flow: 0.9 ml/min • Split ratio: 25:1 • Detector: MS (Agilent, HP-5972)
# Three 6 cm hairs (about 0.9 mg) were used for the analysis.
structure (smiles),measurement,setting,value
CN1CCCC1c1cccnc1 (stereo not shown) [nicotine],nicotine detection in hair,"hair of smoker, three 60 mm hairs (about 0.9 mg), GC-MS",clearly detected
same,nicotine content in hair,"10 cigarettes per day, tobacco brand B (nominal nicotine 0.7 mg)",11.5 ng/mg
same,nicotine content in hair,"15 cigarettes per day, tobacco brand E (nominal nicotine 0.8 mg)",8.2 ng/mg
same,nicotine content in hair,"15 cigarettes per day, tobacco brand F (nominal nicotine 0.1 mg)",13.0 ng/mg
same,nicotine content in hair,"20 cigarettes per day, tobacco brand A (nominal nicotine 1.2 mg)",12.1 ng/mg
same,nicotine content in hair,"20 cigarettes per day, tobacco brand D (nominal nicotine 0.1 mg)",30.5 ng/mg
same,nicotine content in hair,"30 cigarettes per day, tobacco brand C (nominal nicotine 0.4 mg)",55.3 ng/mg
